Experimental data reported in patent US11432573B2, “Food and beverage sweeteners” (priority 2017, dated 2022).

Assay: Serum glucose levels in subjects after consuming coffee with sweetener blend or sucrose (Example 1)
Type: in vivo, human
Conditions: for serum glucose (Average): average across three subjects
Description: The following Example summarizes the impact of the above-listed formulas on serum glucose levels within three different subjects. Specifically, 6.0 grams of a blend of Formula-1 through Formula-5 (above) were stirred vigorously into one shot of regular caffeinated expresso coffee that was topped to 350 milliliters of warm water. The coffee was then completely consumed by each subject within 5 minutes, following a time=0 measurement of each subject's serum glucose levels. Each subject's serum glucose levels were subsequently measured at 15 minute intervals, up to 100 minutes following the time=0 measurement. The impact of traditional sucrose on each of the subject's serum glucose levels was also measured, so that the impact of the test sweetener composition on serum glucose levels could be measured relative to such impact by traditional sucrose. The following Tables summarize the serum glucose level measurements observed with each subject (Table-1, Table-2, and Table-3), along with the average across each of the three subjects (Table-4)(the data represent mmol/L serum glucose).

OC[C@H]1O[C@@](CO)(O[C@H]2O[C@H](CO)[C@@H](O)[C@H](O)[C@H]2O)[C@@H](O)[C@@H]1O [Sucrose, sucrose]
serum glucose (Subject 1, T = 0 (before consumption)): 5.20 mmol/L | serum glucose (Subject 1, T = 15 minutes): 6.20 mmol/L | serum glucose (Subject 1, T = 30 minutes): 7.60 mmol/L | serum glucose (Subject 1, T = 45 minutes): 7.60 mmol/L | serum glucose (Subject 1, T = 60 minutes): 7.00 mmol/L | serum glucose (Subject 1, T = 75 minutes): 6.20 mmol/L | serum glucose (Subject 1, T = 100 minutes): 6.00 mmol/L | serum glucose (Subject 2, T = 0 (before consumption)): 5.10 mmol/L | serum glucose (Subject 2, T = 15 minutes): 6.00 mmol/L | serum glucose (Subject 2, T = 30 minutes): 7.50 mmol/L | serum glucose (Subject 2, T = 45 minutes): 7.40 mmol/L | serum glucose (Subject 2, T = 60 minutes): 7.00 mmol/L | serum glucose (Subject 2, T = 75 minutes): 6.00 mmol/L | serum glucose (Subject 2, T = 100 minutes): 5.60 mmol/L | serum glucose (Subject 3, T = 0 (before consumption)): 5.20 mmol/L | serum glucose (Subject 3, T = 15 minutes): 5.60 mmol/L | serum glucose (Subject 3, T = 30 minutes): 7.70 mmol/L | serum glucose (Subject 3, T = 45 minutes): 7.80 mmol/L | serum glucose (Subject 3, T = 60 minutes): 7.40 mmol/L | serum glucose (Subject 3, T = 75 minutes): 6.40 mmol/L | serum glucose (Subject 3, T = 100 minutes): 6.20 mmol/L | serum glucose (Average) (T = 0 (before consumption)): 5.17 mmol/L | serum glucose (Average) (T = 15 minutes): 5.93 mmol/L | serum glucose (Average) (T = 30 minutes): 7.60 mmol/L | serum glucose (Average) (T = 45 minutes): 7.60 mmol/L | serum glucose (Average) (T = 60 minutes): 7.13 mmol/L | serum glucose (Average) (T = 75 minutes): 6.20 mmol/L | serum glucose (Average) (T = 100 minutes): 5.93 mmol/L
